Source: PMC7780097, “Asn‐linked N–acetylglucosamine of the amylin receptor 2 extracellular domain enhances peptide ligand affinity” (FEBS Open Bio, 2020)

What was measured:
[1] = target: T1, glycosylated CTR ECD[N130D] (Homo sapiens, UniProt P30988, N130D); test: FP peptide binding assay, glycosylated CTR ECD[N130D] with or without PNGase F treatment; conditions: heat‐inactivated PNGase F vs No PNGase F; Fig. 2A
T1 sequence (P30988 38-141 N130D): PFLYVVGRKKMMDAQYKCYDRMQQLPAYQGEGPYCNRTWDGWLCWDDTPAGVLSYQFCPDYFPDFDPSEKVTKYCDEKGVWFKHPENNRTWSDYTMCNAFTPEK
Protocol: (§1) pHLsec‐based vectors were used to obtain glycosylated CTR ECD from HEK293S GnTI^− cells as a secreted protein. Maltose‐binding protein (MBP) was fused to the CTR ECD to increase initial protein expression and purification.
(§2) MBP‐TEV cleavage site‐CTR ECD WT was expressed from HEK293S GnTI^− cells for 3 days after plasmid transfection with polyethyleneimine (PEI). All protein purification steps were performed at 4 °C, otherwise noted. The expressed protein was purified with immobilized Ni metal affinity chromatography (IMAC). The peak fractions were pooled and incubated with 1 : 5 ratio TEV protease (w/w, TEV protease: protein) for 6 h at 20 °C. The reaction mixture was spin‐concentrated (MWCO 10 kDa) and loaded to size‐exclusion chromatography (SEC). The fractions with expected CTR ECD WT molecular weight were collected, spin‐concentrated, and used for PNGase F reaction and following peptide binding assay. […]
(§3) The procedure of fluorescence polarization (FP) peptide binding assay was previously described [4]. FITC‐sCT(22–32), FITC‐AC413(6–25), and FITC‐AM(37–52)[S45W/Q50W] were used as fluorescence‐labeled peptide probes. […] A PolarStar Omega plate reader (BMG Labtech, Cary, NC, USA) or a SpectraiD5 (Molecular Devices, San Jose, CA, USA) was used to measure FP. Background‐subtracted fluorescence intensity was used to calculate anisotropy.

[2] = test system: glycosylated CTR ECD[N130D]; test: as above; conditions: PNGase F treatment vs No PNGase F treatment; Fig. 2A
Protocol: as §1, §2, §3

[3] = target: RAMP2 ECD:CTR ECD complex (Endo H‐treated CTR ECD WT) (Homo sapiens, UniProt O60895+P30988); test: FP peptide binding assay, RAMP2 ECD 100 μM coincubation with Endo H-treated CTR ECD WT (AMY2 ECD); conditions: Discussion summary of Fig. 4B
Protocol: The expression and purification procedure of Endo H‐treated CTR ECD WT and N130D was previously reported. […] After TEV protease reaction, N‐glycans of the protein were trimmed with 1 : 10 ratio Endo H (w/w, Endo H : protein) overnight at 4 °C, while dialyzing to 25 mM MOPS (pH 6.5) and 150 mM NaCl. Next day, the pH was increased to pH 7.5 and the protein was purified with IMAC and following SEC. The final peak fractions were dialyzed to storage buffer and stored at −80 °C until use.
The expression and purification of glycan‐free RAMP2 ECD were previously reported except for using RAMP2.55‐140 instead of RAMP2.36‐140 [15]. Briefly, MBP‐Thrombin cleavage site‐hRAMP2.55‐140‐H6 was expressed in the E. coli strain Origami B DE3. The cells were lysed by sonication and spun down by centrifugation. The supernatant was purified with IMAC and following amylose affinity chromatography. Human α‐thrombin was used to cleave out MBP, and the reaction mixture was loaded to IMAC to remove untagged MBP and thrombin. The RAMP2 ECD was further purified with SEC, and the peak fractions were dialyzed to storage buffer and stored at −80 °C until use. RAMP2 ECD without an MBP‐tag was also purified as follows. hRAMP2.55‐140‐H6 was expressed in the E. coli strain Origami B DE3. The bacterial cells were lysed by sonication using Bioruptor® standard (Diagenode Inc., Denville, NJ, USA). […]

[4] = test system: CTR; parameters: method as in PMID 15692146; conditions: cited from earlier work
[5] = test system: full‐length CTR; conditions: cited from earlier work
From the text: The calcitonin receptor (CTR) is a class B GPCR for peptide hormone calcitonin that regulates calcium homeostasis. CTR has an ECD with four N‐glycosylation sites: N28, N73, N125, and N130. […] My colleagues and I reported that N‐glycosylation of CTR enhanced salmon calcitonin (sCT) affinity for CTR ECD by sevenfold and that the asp ...

[6] = test system: CTR ECD; conditions: cited from earlier work
From the text: The calcitonin receptor (CTR) is a class B GPCR for peptide hormone calcitonin that regulates calcium homeostasis. CTR has an ECD with four N‐glycosylation sites: N28, N73, N125, and N130. […] Unexpectedly, the crystal structures of Endo H‐treated/Asn‐linked GlcNAc‐containing CTR ECD were almost identical to the structure of glycan‐free CTR ECD with a subtle structural difference. Direct interaction between the Asn‐linked GlcNAc and peptide hormone sCT was not found in the crystal structures ruling out the hypothesis of direct interaction between them. We also examined whether CTR ECD residues near the Asn‐linked GlcNAc of N130 medi ...

[7] = test system: AMY; parameters: method as in PMID 15692146; conditions: cited from earlier work
[8] = by the Asn‐linked GlcNAc of CTR N130

Sequence of RAMP2 ECD:CTR ECD complex (Endo H‐treated CTR ECD WT) (P30988 38-141): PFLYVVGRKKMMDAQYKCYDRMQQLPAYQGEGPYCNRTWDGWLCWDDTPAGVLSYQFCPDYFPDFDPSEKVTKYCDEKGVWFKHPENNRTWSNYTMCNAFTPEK
Sequence of RAMP2 ECD:CTR ECD complex (Endo H‐treated CTR ECD WT) (O60895 55-140): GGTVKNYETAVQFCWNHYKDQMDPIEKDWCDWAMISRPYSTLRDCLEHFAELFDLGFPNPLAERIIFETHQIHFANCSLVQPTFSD

salmon calcitonin [sCT]
effect of heat‐inactivated PNGase F on affinity [1]: did not change | fold decrease in affinity [2]: 1.7 fold | sCT affinity for AMY2 ECD, effect of the Asn‐linked GlcNAc of CTR N130 [3]: increased | agonist activity [4]: high affinity agonist | affinity, effect of N‐glycosylation of CTR ECD N130 [5]: enhanced | fold enhancement of affinity by N‐glycosylation ([6]; N‐glycosylation of CTR): sevenfold | decrease of dissociation rate [6, 8]: twofold | fold affinity enhancement [6, 8]: sixfold | increase of association rate [6, 8]: threefold | agonist activity [7]: high affinity agonist
